From ChEMBL document CHEMBL4382214, “Antileishmanial activity of new hybrid tetrahydroquinoline and quinoline derivatives with phosphorus substituents” (Eur J Med Chem, 2019) come the findings set out here.

Activity calls are given as the source filed them. No cut-off for these calls is given here.

Broadly, the EC50 is the midpoint of the concentration-response curve. Broadly, the CC50 is the concentration at which the toxic effect on the cells reaches its halfway point. What is called IC50 is the concentration that inhibits the measured activity by half.

Data set [1] deals with Leishmania infantum. The experiment in a line: Leishmanicidal activity against promastigote stage of iRFP expressing Leishmania infantum BCN150 assessed as decrease in parasite viability after 72 hrs by fluorescence assay. The format is functional, organism-based. Conditions: BCN150, 72 h.
Data set [2] concerns Leishmania infantum. As to the kind of experiment: Leishmanicidal activity against amastigote stage of iRFP expressing Leishmania infantum BCN150 infected in BALB/c mouse splenocytes assessed as decrease in parasite viability by fluorescence assay. It is filed as functional, organism-based.
The nature of data set [3]: Cytotoxicity against BALB/c mouse splenocytes assessed as reduction in cell viability by alamar blue assay. The format is cell-based, Splenocyte.
Data set [4] can be described thus: Selectivity index, ratio of CC50 for BALB/c mouse splenocytes to EC50 for amastigote stage of iRFP expressing Leishmania infantum BCN150 infected in BALB/c mouse splenocytes. The format is toxicity, cell-based. The following applies: read-out: Ratio CC50/EC50.
In data set [5] the test system is Leishmania donovani. As to the kind of experiment: Inhibition of Leishmania donovani Top1B expressed in Top1B deficient Saccharomyces cerevisiae EKY3 assessed as decrease in relaxation of supercoiled pSK DNA preincubated for 15 mins followed by DNA addition and measured after 2 to 8 mins by agarose gel electrophoresis.
Data set [6] has as its system Leishmania donovani. As to the kind of experiment: Inhibition of Leishmania donovani Top1B expressed in Top1B deficient Saccharomyces cerevisiae EKY3 assessed as decrease in relaxation of supercoiled pSK DNA preincubated for 15 mins followed by DNA addition and measured after 16 mins by agarose gel electrophoresis.
Data set [7] can be described thus: Inhibition of Leishmania donovani Top1B expressed in Top1B deficient Saccharomyces cerevisiae EKY3 assessed as decrease in relaxation of supercoiled pSK DNA preincubated for 15 mins followed by DNA addition and measured after 5 mins by agarose gel electrophoresis. The following applies: read-out: IC50.
Data set [8] concerns the target T1, DNA topoisomerase 1 (Homo sapiens) (UniProt P11387).
T1 sequence (whole entry): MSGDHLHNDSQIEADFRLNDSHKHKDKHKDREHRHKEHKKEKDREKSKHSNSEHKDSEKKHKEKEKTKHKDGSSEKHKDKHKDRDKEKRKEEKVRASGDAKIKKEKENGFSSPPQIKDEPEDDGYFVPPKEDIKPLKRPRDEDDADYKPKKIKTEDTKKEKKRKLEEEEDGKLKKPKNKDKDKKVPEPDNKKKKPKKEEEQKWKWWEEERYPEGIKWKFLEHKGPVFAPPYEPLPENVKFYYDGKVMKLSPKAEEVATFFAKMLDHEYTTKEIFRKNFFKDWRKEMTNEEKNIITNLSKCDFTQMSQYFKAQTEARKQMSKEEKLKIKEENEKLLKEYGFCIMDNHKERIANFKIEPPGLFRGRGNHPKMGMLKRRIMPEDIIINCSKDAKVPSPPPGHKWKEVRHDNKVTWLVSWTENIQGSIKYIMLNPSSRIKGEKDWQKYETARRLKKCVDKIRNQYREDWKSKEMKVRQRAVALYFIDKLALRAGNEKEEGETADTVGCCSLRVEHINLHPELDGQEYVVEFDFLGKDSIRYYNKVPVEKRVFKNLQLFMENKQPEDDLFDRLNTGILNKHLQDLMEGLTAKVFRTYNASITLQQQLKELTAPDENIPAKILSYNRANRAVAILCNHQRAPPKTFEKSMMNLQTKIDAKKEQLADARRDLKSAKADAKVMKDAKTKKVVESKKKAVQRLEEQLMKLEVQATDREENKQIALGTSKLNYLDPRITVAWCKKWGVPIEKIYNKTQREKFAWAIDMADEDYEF
The experiment in a line: Inhibition of human Top1B expressed in Top1B deficient Saccharomyces cerevisiae EKY3 assessed as decrease in relaxation of supercoiled pSK DNA preincubated for 15 mins followed by DNA addition and measured after 2 to 8 mins by agarose gel electrophoresis.

Data set [9] addresses T1, DNA topoisomerase 1 (Homo sapiens). The experiment in a line: Inhibition of human Top1B expressed in Top1B deficient Saccharomyces cerevisiae EKY3 assessed as decrease in relaxation of supercoiled pSK DNA preincubated for 15 mins followed by DNA addition and measured after 16 mins by agarose gel electrophoresis.
A further data set deals with T2, DNA topoisomerase 1 (Homo sapiens, UniProt P11387).
T2 sequence (P11387 whole entry): T1 sequence (whole entry)
The experiment in a line: Inhibition of human Top1B expressed in Top1B deficient Saccharomyces cerevisiae EKY3 assessed as decrease in relaxation of supercoiled pSK DNA preincubated for 15 mins followed by DNA addition and measured after 5 mins by agarose gel electrophoresis. Conditions: read-out: IC50.

On to `O=P(c1ccccc1)(c1ccccc1)c1cccc2c(-c3ccc(F)cc3)cc(-c3ccc(F)c(F)c3)nc12`, for which the results for the EC50 with Leishmania infantum [1] and with Leishmania infantum [2] were 2.33 µM and 2.15 µM, respectively. Moreover, the CC50 in [3] is 23.9 µM. For the same compound, the selectivity ratio in data set [4] worked out at 11.1. Moreover, the inhibition entry (in the data set with Leishmania donovani [5]; in [8]) was “Active” in each case. Also, the inhibition result (in the data set with Leishmania donovani [6]; in [9]) was “inactive” each time. The IC50 in [7] was found to be 48.1 µM; at DNA topoisomerase 1, 69.6 µM.
